According to US12157741B2, “Macrocyclic inhibitors of DYRK1A” (DANA-FARBER CANCER INSTITUTE, INC., priority 2018, dated 2024):
Read-outs that look alike come from different tables or passages of the source.

What was measured:
Format in all cases: binding
[1] = target: various enzymes (Homo sapiens, UniProt O00444); details: compound 1 uM
Procedure: (§1) Ambit profiling was conducted in accordance with the manufacturer's instructions.

[2] = target: various enzymes (Homo sapiens, UniProt O14936); details: compound 1 uM
Procedure: as §1

[3] = target: various enzymes (Homo sapiens, UniProt O75747); details: compound 1 uM
Procedure: as §1

[4] = target: various enzymes (Homo sapiens, UniProt O95747); details: compound 1 uM
Procedure: as §1

[5] = target: various enzymes (Homo sapiens, UniProt P00519, F317L); details: compound 1 uM
Procedure: as §1

[6] = target: various enzymes (Homo sapiens, UniProt P00519, M351T)
Procedure: as §1

[7] = target: various enzymes (Homo sapiens, UniProt P07332); details: compound 1 uM
Procedure: as §1

[8] = target: various enzymes (Homo sapiens, UniProt P07949, V804L)
Procedure: as §1

[9] = target: various enzymes (Homo sapiens, UniProt P08069); details: compound 1 uM
Procedure: as §1

[10] = target: various enzymes (Homo sapiens, UniProt P09619); details: compound 1 uM
Procedure: as §1

[11] = target: various enzymes (Homo sapiens, UniProt P10721, V559D/V654A)
Procedure: as §1

[12] = target: various enzymes (Homo sapiens, UniProt P21709); details: compound 1 uM
Procedure: as §1

[13] = target: various enzymes (Homo sapiens, UniProt P21802); details: compound 1 uM
Procedure: as §1

[14] = target: various enzymes (Homo sapiens, UniProt P22607); details: compound 1 uM
Procedure: as §1

[15] = target: various enzymes (Homo sapiens, UniProt P22694); details: compound 1 uM
Procedure: as §1

[16] = target: various enzymes (Homo sapiens, UniProt P41240); details: compound 1 uM
Procedure: as §1

[17] = target: various enzymes (Homo sapiens, UniProt P43405); details: compound 1 uM
Procedure: as §1

[18] = target: various enzymes (Homo sapiens, UniProt P49674); details: compound 1 uM
Procedure: as §1

[19] = target: various enzymes (Homo sapiens, UniProt P68400); details: compound 1 uM
Procedure: as §1

[20] = target: various enzymes (Homo sapiens, UniProt P78356); details: compound 1 uM
Procedure: as §1

[21] = target: various enzymes (Homo sapiens, UniProt Q00526); details: compound 1 uM
Procedure: as §1

[22] = target: various enzymes (Homo sapiens, UniProt Q00537); details: compound 1 uM
Procedure: as §1

[23] = target: various enzymes (Homo sapiens, UniProt Q04759); details: compound 1 uM
Procedure: as §1

[24] = target: various enzymes (Homo sapiens, UniProt Q05655); details: compound 1 uM
Procedure: as §1

[25] = target: various enzymes (Homo sapiens, UniProt Q06187); details: compound 1 uM
Procedure: as §1

[26] = target: various enzymes (Homo sapiens, UniProt Q13523); details: compound 1 uM
Procedure: as §1

[27] = target: various enzymes (Homo sapiens, UniProt Q6XUX3); details: compound 1 uM
Procedure: as §1

[28] = target: various enzymes (Homo sapiens, UniProt Q7L7X3); details: compound 1 uM
Procedure: as §1

[29] = target: various enzymes (Homo sapiens, UniProt Q8IU85); details: compound 1 uM
Procedure: as §1

[30] = target: various enzymes (Homo sapiens, UniProt Q8NEV4); details: compound 1 uM
Procedure: as §1

[31] = target: various enzymes (Homo sapiens, UniProt Q92772); details: compound 1 uM
Procedure: as §1

[32] = target: various enzymes (Homo sapiens, UniProt Q96BR1); details: compound 1 uM
Procedure: as §1

[33] = target: various enzymes (Homo sapiens, UniProt Q96PY6); details: compound 1 uM
Procedure: as §1

[34] = target: various enzymes (Homo sapiens, UniProt Q96SB4); details: compound 1 uM
Procedure: as §1

[35] = target: various enzymes (Homo sapiens, UniProt Q99558); details: compound 1 uM
Procedure: as §1

[36] = target: various enzymes (Homo sapiens, UniProt Q99755); details: compound 1 uM
Procedure: as §1

[37] = target: various enzymes (Homo sapiens, UniProt Q9BX84); details: compound 1 uM
Procedure: as §1

[38] = target: various enzymes (Homo sapiens, UniProt Q9HAZ1); details: compound 1 uM
Procedure: as §1

[39] = target: various enzymes (Homo sapiens, UniProt Q9NSY1); details: compound 1 uM
Procedure: as §1

[40] = target: various enzymes (Homo sapiens, UniProt Q9UHD2); details: compound 1 uM
Procedure: as §1

[41] = target: various enzymes (Homo sapiens, UniProt Q9Y2H1); details: compound 1 uM
Procedure: as §1

[42] = target: various enzymes (Mycobacterium tuberculosis, UniProt P9WI81); details: compound 1 uM
Procedure: as §1

[43] = target: various enzymes (Plasmodium falciparum, UniProt P62344)
Procedure: as §1

Sequence of various enzymes (Homo sapiens, UniProt Q6XUX3) (Q6XUX3 whole entry): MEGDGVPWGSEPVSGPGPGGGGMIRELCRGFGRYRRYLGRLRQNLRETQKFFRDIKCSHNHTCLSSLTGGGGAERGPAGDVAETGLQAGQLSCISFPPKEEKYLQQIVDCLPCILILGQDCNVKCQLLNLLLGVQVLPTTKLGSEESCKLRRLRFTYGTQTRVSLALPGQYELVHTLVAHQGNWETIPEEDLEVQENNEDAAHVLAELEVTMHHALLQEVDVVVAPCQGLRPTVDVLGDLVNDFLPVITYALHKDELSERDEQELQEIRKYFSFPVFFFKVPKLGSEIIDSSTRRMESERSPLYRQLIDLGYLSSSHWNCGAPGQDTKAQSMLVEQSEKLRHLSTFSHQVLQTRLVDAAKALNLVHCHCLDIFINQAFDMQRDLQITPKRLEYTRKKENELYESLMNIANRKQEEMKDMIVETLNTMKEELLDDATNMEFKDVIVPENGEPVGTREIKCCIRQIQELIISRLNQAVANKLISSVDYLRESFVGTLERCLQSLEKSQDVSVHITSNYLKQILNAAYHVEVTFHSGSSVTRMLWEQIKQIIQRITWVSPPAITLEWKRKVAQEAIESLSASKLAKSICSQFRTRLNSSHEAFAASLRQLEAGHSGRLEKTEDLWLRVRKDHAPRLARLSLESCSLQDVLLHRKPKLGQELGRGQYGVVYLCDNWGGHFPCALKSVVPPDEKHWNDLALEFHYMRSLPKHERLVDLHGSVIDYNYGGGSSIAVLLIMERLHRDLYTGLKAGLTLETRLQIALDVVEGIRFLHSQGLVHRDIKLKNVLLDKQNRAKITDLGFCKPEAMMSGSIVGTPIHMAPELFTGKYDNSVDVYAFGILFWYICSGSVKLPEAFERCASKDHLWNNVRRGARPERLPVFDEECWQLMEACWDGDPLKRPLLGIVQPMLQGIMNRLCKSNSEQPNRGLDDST
Sequence of various enzymes (Homo sapiens, UniProt Q7L7X3) (Q7L7X3 whole entry): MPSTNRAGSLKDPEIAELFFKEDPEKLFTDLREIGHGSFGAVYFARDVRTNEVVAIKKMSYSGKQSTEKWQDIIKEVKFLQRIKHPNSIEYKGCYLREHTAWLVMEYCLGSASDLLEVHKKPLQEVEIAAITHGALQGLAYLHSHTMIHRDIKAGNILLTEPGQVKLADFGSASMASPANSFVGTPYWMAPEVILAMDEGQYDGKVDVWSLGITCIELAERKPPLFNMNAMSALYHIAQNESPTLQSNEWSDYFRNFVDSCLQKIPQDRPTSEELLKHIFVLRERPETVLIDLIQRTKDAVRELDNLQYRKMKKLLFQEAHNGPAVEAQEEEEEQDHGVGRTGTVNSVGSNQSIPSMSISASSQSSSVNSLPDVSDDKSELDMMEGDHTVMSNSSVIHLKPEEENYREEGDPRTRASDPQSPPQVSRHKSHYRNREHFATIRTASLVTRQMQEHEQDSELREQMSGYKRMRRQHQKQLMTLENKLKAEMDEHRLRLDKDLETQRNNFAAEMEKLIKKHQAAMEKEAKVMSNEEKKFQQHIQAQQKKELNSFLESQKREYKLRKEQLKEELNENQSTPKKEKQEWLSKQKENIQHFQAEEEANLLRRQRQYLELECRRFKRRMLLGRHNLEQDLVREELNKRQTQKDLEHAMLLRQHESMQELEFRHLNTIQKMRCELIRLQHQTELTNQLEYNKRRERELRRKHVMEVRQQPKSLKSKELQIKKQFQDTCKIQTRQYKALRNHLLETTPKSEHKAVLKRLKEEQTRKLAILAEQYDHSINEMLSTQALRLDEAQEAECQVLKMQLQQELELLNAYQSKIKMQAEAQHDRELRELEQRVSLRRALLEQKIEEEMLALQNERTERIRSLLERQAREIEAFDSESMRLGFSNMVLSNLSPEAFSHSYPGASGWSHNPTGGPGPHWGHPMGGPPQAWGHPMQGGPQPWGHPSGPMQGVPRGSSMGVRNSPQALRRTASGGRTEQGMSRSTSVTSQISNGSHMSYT
Sequence of various enzymes (Homo sapiens, UniProt Q99558) (Q99558 whole entry): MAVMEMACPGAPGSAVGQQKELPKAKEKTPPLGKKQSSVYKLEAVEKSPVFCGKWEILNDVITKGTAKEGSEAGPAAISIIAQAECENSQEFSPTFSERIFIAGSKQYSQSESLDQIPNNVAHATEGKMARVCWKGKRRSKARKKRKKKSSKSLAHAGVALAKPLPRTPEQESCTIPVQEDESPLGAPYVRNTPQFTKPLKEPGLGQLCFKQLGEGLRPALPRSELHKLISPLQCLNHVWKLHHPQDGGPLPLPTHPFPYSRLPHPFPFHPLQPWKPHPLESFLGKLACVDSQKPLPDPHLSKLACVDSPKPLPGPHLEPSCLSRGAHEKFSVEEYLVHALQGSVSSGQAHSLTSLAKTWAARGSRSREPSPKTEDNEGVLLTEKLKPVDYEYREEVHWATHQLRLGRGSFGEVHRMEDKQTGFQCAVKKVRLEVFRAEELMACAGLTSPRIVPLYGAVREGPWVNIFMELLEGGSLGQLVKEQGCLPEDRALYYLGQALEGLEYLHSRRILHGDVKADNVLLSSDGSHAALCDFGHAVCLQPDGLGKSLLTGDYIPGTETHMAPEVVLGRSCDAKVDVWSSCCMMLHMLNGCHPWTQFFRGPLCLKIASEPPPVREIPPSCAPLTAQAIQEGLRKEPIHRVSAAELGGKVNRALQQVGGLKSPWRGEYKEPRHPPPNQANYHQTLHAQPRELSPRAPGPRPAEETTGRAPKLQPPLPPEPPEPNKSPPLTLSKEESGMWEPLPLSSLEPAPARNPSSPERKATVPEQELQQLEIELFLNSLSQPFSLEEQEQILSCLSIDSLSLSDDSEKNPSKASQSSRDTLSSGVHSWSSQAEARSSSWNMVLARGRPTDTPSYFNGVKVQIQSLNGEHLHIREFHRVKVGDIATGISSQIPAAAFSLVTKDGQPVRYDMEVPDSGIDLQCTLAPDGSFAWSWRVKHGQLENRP
Sequence of various enzymes (Homo sapiens, UniProt Q96PY6) (Q96PY6 whole entry): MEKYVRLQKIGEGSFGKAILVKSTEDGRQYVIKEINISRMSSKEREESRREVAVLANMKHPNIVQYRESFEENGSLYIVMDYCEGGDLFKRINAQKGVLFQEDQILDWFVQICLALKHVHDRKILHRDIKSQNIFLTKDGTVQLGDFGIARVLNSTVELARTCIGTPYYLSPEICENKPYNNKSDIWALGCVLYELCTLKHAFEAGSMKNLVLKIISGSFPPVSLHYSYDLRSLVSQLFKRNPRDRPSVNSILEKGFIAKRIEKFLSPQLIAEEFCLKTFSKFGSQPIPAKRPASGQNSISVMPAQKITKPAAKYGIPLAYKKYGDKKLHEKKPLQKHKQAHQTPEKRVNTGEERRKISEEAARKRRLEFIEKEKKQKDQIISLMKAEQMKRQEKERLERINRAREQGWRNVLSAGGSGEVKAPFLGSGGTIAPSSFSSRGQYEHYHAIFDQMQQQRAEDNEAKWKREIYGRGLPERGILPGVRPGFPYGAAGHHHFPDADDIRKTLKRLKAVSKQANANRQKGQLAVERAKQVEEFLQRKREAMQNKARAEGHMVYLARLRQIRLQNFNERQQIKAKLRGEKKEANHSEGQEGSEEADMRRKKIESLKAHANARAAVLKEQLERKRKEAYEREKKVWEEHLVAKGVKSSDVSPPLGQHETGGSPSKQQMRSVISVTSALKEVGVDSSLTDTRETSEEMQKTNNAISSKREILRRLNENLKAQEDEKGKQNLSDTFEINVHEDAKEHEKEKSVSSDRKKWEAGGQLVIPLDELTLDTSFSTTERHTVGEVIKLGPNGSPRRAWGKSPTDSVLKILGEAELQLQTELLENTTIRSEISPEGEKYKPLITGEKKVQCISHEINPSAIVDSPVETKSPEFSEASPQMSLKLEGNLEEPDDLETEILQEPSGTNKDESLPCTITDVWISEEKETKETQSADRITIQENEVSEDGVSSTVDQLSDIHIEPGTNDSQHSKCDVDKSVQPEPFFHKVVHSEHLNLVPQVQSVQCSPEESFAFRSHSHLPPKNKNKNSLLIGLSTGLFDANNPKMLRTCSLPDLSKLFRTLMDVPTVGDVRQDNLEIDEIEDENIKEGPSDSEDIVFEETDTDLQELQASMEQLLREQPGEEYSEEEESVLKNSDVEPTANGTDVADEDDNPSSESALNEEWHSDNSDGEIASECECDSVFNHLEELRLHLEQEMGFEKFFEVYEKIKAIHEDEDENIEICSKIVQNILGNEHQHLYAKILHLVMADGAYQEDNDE
Sequence of various enzymes (Homo sapiens, UniProt P78356) (P78356 whole entry): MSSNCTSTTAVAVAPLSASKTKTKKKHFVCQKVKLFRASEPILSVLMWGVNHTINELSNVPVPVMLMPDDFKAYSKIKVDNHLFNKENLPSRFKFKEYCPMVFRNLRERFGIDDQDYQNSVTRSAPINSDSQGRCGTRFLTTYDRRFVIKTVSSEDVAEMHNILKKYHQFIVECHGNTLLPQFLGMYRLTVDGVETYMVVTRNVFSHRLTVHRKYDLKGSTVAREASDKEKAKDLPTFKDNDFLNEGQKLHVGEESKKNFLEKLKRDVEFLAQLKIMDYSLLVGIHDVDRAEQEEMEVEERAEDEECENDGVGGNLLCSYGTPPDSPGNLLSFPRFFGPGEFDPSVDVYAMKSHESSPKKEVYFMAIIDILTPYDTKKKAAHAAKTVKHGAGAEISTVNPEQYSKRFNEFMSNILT
Sequence of various enzymes (Homo sapiens, UniProt Q00526) (Q00526 whole entry): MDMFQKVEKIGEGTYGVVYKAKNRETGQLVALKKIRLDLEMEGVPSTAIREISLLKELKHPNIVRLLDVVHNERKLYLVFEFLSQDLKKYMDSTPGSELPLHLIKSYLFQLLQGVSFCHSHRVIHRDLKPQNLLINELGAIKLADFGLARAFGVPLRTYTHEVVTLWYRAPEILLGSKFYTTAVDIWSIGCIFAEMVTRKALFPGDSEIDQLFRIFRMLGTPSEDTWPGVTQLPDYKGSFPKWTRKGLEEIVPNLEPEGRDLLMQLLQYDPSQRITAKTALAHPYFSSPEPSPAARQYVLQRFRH

## CC(C)N1Cc2nn(C)cc2-c2cnc3[nH]cc(c3c2)-c2cn(nc2C(F)(F)F)CCCC1=O [Compound 45, (Z)-5-isopropyl-31-methyl-13-(trifluoromethyl)-11H,21H,31H-5-aza-2(3,5)-pyrrolo[2,3-b]pyridina-1(4,1),3(4,3)-dipyrazolacyclononaphan-6-one]
[1]
  Ambit profiling: PLK4: 29
[2]
  Ambit profiling: CASK: 7.4
[3]
  Ambit profiling: PIK3C2G: 97
[4]
  Ambit profiling: OSR1: 100
[5]
  Ambit profiling: ABL1(F317L)-nonphosphorylated: 55
  Ambit profiling: ABL1(F317L)-phosphorylated: 25
[6]; compound 1 uM
  Ambit profiling: ABL1(M351T)-phosphorylated: 19
[7]
  Ambit profiling: FES: 74
[8]; compound 1 uM
  Ambit profiling: RET(V804L): 10
[9]
  Ambit profiling: IGF1R: 86
[10]
  Ambit profiling: PDGFRB: 0.1
[11]; compound 1 uM
  Ambit profiling: KIT(V559D, V654A): 100
[12]
  Ambit profiling: EPHA1: 26
[13]
  Ambit profiling: FGFR2: 9.5
[14]
  Ambit profiling: FGFR3: 5.4
[15]
  Ambit profiling: PKAC-beta: 54
[16]
  Ambit profiling: CSK: 3.9
[17]
  Ambit profiling: SYK: 35
[18]
  Ambit profiling: CSNK1E: 23
[19]
  Ambit profiling: CSNK2A1: 19
[20]
  Ambit profiling: PIP5K2B: 23
[21]
  Ambit profiling: CDK3: 33
[22]
  Ambit profiling: PCTK2: 19
[23]
  Ambit profiling: PRKCQ: 27
[24]
  Ambit profiling: PRKCD: 71
[25]
  Ambit profiling: BTK: 55
[26]
  Ambit profiling: PRP4: 36
[27]
  Ambit profiling: RIPK5: 27
[28]
  Ambit profiling: TAOK1: 8.8
[29]
  Ambit profiling: CAMK1D: 60
[30]
  Ambit profiling: MYO3A: 23
[31]
  Ambit profiling: CDKL2: 14
[32]
  Ambit profiling: SGK3: 30
[33]
  Ambit profiling: NEK1: 100
[34]
  Ambit profiling: SRPK1: 4.5
[35]
  Ambit profiling: NIK: 94
[36]
  Ambit profiling: PIP5K1A: 27
[37]
  Ambit profiling: TRPM6: 83
[38]
  Ambit profiling: CLK4: 19
[39]
  Ambit profiling: BIKE: 1.2
[40]
  Ambit profiling: TBK1: 0
[41]
  Ambit profiling: NDR2: 92
[42]
  Ambit profiling: PKNB(M. tuberculosis): 7
[43]; compound 1 uM
  Ambit profiling: PFCDPK1(P. falciparum): 2.8

## COc1c2c(nn1C)CN(C(C)C)C(=O)CCCn1cc(c(C(F)(F)F)n1)-c1c[nH]c3ncc-2cc13 [Compound 50, (Z)-5-isopropyl-35-methoxy-31-methyl-13-(trifluoromethyl)-11H,21H,31H-5-aza-2(3,5)-pyrrolo[2,3-b]pyridina-1(4,1),3(4,3)-dipyrazolacyclononaphan-6-one]
[1]
  Ambit profiling: PLK4: 10
[2]
  Ambit profiling: CASK: 36
[3]
  Ambit profiling: PIK3C2G: 58
[4]
  Ambit profiling: OSR1: 100
[5]
  Ambit profiling: ABL1(F317L)-nonphosphorylated: 35
  Ambit profiling: ABL1(F317L)-phosphorylated: 2.5
[6]
  Ambit profiling: ABL1(M351T)-phosphorylated: 4.1
[7]
  Ambit profiling: FES: 31
[8]
  Ambit profiling: RET(V804L): 18
[9]
  Ambit profiling: IGF1R: 69
[10]
  Ambit profiling: PDGFRB: 0
[11]
  Ambit profiling: KIT(V559D, V654A): 70
[12]
  Ambit profiling: EPHA1: 29
[13]
  Ambit profiling: FGFR2: 11
[14]
  Ambit profiling: FGFR3: 7.6
[15]
  Ambit profiling: PKAC-beta: 45
[16]
  Ambit profiling: CSK: 4.7
[17]
  Ambit profiling: SYK: 26
[18]
  Ambit profiling: CSNK1E: 13
[19]
  Ambit profiling: CSNK2A1: 59
[20]
  Ambit profiling: PIP5K2B: 35
[21]
  Ambit profiling: CDK3: 78
[22]
  Ambit profiling: PCTK2: 56
[23]
  Ambit profiling: PRKCQ: 13
[24]
  Ambit profiling: PRKCD: 43
[25]
  Ambit profiling: BTK: 56
[26]
  Ambit profiling: PRP4: 87
[27]
  Ambit profiling: RIPK5: 95
[28]
  Ambit profiling: TAOK1: 82
[29]
  Ambit profiling: CAMK1D: 38
[30]
  Ambit profiling: MYO3A: 11
[31]
  Ambit profiling: CDKL2: 20
[32]
  Ambit profiling: SGK3: 50
[33]
  Ambit profiling: NEK1: 71
[34]
  Ambit profiling: SRPK1: 30
[35]
  Ambit profiling: NIK: 86
[36]
  Ambit profiling: PIP5K1A: 19
[37]
  Ambit profiling: TRPM6: 100
[38]
  Ambit profiling: CLK4: 17
[39]
  Ambit profiling: BIKE: 10
[40]
  Ambit profiling: TBK1: 3.8
[41]
  Ambit profiling: NDR2: 78
[42]
  Ambit profiling: PKNB(M. tuberculosis): 36
[43]
  Ambit profiling: PFCDPK1(P. falciparum): 24
